In patent US7393853B2, “Use of substituted 8-Perfluoroalkyl-6,7,8,9-tetrahydropyrimido[1,2-a] pyrimidin-4-one derivatives as therapeutic agents” (Sanofi Aventis, priority 2003, dated 2008):
Structures can show the parent of a compound that is named as a salt.

system: not given; assay: not given; conditions: not given

melting point [°C]	Compound
241 to 242	O=C(CN1c2nc(-c3ccncc3)c(F)c(=O)n2CCC1C(F)(F)F)c1ccccc1 (racemic) [compound 10, 3-Fluoro-9-(2-oxo-2-phenylethyl)-2-pyridin-4-yl-8-(trifluoromethyl)-6,7,8,9-tetrahydro-4H-pyrimido[1,2-a]pyrimidin-4-one]
177 to 179	O=c1cc(-c2ccncn2)nc2n1CCC(C(F)(F)F)N2Cc1ccccc1 (racemic) [compound 11, 9-(Phenylmethyl)-2-pyrimidin-4-yl-8-(trifluoromethyl)-6,7,8,9-tetrahydro-4H-pyrimido[1,2-a]pyrimidin-4-one]
147 to 149	O=c1cc(-c2ccncn2)nc2n1CCC(C(F)(F)F)N2CCc1ccccc1 (racemic) [compound 12, 9-(2-Phenylethyl)-2-pyrimidin-4-yl-8-(trifluoromethyl)-6,7,8,9-tetrahydro-4H-pyrimido[1,2-a]pyrimidin-4-one]
236 to 238	O=C(CN1c2nc(-c3ccncn3)cc(=O)n2CCC1C(F)(F)F)c1cccc(Br)c1 (racemic) [compound 13, 9-[2-(3-Bromophenyl)-2-oxoethyl]-2-pyrimidin-4-yl-8-(trifluoromethyl)-6,7,8,9-tetrahydro-4H-pyrimido[1,2-a]pyrimidin-4-one]
245 to 247	O=C(CN1c2nc(-c3ccncn3)cc(=O)n2CCC1C(F)(F)F)c1cccc(F)c1 (racemic) [compound 14, 9-[2-(3-Fluorophenyl)-2-oxoethyl]-2-pyrimidin-4-yl-8-(trifluoromethyl)-6,7,8,9-tetrahydro-4H-pyrimido[1,2-a]pyrimidin-4-one]
239 to 241	Cc1ccc(C(=O)CN2c3nc(-c4ccncn4)cc(=O)n3CCC2C(F)(F)F)cc1 (racemic) [compound 15, 9-[2-(4-Methylphenyl)-2-oxoethyl]-2-pyrimidin-4-yl-8-(trifluoromethyl)-6,7,8,9-tetrahydro-4H-pyrimido[1,2-a]pyrimidin-4-one]
253 to 255	O=C(CN1c2nc(-c3ccncn3)cc(=O)n2CCC1C(F)(F)F)c1ccc(F)cc1 (racemic) [compound 16, 9-[2-(4-Fluorophenyl)-2-oxoethyl]-2-pyrimidin-4-yl-8-(trifluoromethyl)-6,7,8,9-tetrahydro-4H-pyrimido[1,2-a]pyrimidin-4-one]
201 to 203	N#Cc1ccc(C(=O)CN2c3nc(-c4ccncn4)cc(=O)n3CCC2C(F)(F)F)cc1 (racemic) [compound 17, 9-[2-(4-Cyanophenyl)-2-oxoethyl]-2-pyrimidin-4-yl-8-(trifluoromethyl)-6,7,8,9-tetrahydro-4H-pyrimido[1,2-a]pyrimidin-4-one]
231 to 233	O=C(CN1c2nc(-c3ccncn3)cc(=O)n2CCC1C(F)(F)F)c1ccc(-c2ccccc2)cc1 (racemic) [compound 18, 9-(2-biphenyl-4-yl-2-oxoethyl)-2-pyrimidin-4-yl-8-(trifluoromethyl)-6,7,8,9-tetrahydro-4H-pyrimido[1,2-a]pyrimidin-4-one]

target: GSK3β (Homo sapiens, UniProt P49841); assay: Inhibitory activity against GSK3β (33P-ATP phosphorylation of prephosphorylated GS1 peptide, two protocols); assay type: biochemical; conditions: protocol (first or second) not specified
Sequence (P49841 whole entry, species assumed): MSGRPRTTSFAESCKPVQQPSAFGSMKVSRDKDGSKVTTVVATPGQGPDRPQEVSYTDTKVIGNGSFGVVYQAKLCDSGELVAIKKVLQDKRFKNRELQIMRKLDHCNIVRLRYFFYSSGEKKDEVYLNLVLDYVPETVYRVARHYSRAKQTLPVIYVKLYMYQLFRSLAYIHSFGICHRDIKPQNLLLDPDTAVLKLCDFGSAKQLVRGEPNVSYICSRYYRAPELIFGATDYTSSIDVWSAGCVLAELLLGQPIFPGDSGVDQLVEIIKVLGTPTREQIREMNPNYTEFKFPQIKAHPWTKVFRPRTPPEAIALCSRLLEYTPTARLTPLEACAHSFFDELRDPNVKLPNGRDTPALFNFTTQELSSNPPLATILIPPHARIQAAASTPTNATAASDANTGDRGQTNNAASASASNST
Protocol: Inhibitory Activity of the Medicament of the Present Invention Against GSK3β
Two different protocols can be used.
In a first protocol: 7.5 μM of prephosphorylated GS1 peptide and 10 μM ATP (containing 300,000 cpm of 33P-ATP) were incubated in 25 mM Tris-HCl, pH 7.5, 0.6 mM DTT, 6 mM MgCl2, 0.6 mM EGTA, 0.05 mg/ml BSA buffer for 1 hour at room temperature in the presence of GSK3beta (total reaction volume: 100 microliters).
In a second protocol: 4.1 μM of prephosphorylated GS1 peptide and 42 μM ATP (containing 260,000 cpm 33P-ATP) were incubated in 80 mM Mes-NaOH, pH 6.5, 1 mM Mg acetate, 0.5 mM EGTA, 5 mM 2-mercaptoethanol, 0.02% Tween 20, 10% glycerol buffer for 2 hours at room temperature in the presence of GSK3beta.
Inhibitors were solubilized in DMSO (final solvent concentration in the reaction medium, 1%).
The reaction was stopped with 100 microliters of a solution made of 25 g polyphosphoric acid (85% P2O5), 126 ml 85% H3PO4, H2O to 500 ml and then diluted to 1:100 before use. An aliquot of the reaction mixture was then transferred to Whatman P81 cation exchange filters and rinsed with the solution described above. Incorporated 33P radioactivity was determined by liquid scintillation spectrometry.
The phosphorylated GS-1 peptide had the following sequence: […]

IC50 [nM]	Compound
3	O=C(CN1c2nc(-c3ccncc3)cc(=O)n2CCC1C(F)(F)F)c1ccccc1 (single isomer, unassigned; (-)) [compound 6, (−)-9-(2-Oxo-2-phenyl-ethyl)-2-(4-pyridinyl)-8-(trifluoromethyl)-6,7,8,9-tetrahydro-4H-pyrimido[1,2-a]pyrimidin-4-one hydrochloride (1:1).]
